Results on 2 compounds are retold here after patent US7439396B2, “Pharmaceutical/cosmetic compositions comprising novel ligands that activate RAR receptors” (Galderma Research & Development, priority 2003, dated 2008).

Holding throughout (assay type): cell-based
Test [1] addresses T1, RAR beta (Homo sapiens, UniProt P10826).
T1 sequence (P10826 183-417 limits assumed): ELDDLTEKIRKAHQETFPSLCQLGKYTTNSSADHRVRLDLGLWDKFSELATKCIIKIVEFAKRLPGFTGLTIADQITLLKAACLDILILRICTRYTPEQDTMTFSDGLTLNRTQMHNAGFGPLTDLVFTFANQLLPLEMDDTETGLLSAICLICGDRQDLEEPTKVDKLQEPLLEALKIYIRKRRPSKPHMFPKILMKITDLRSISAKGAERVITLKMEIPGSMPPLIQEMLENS
Put plainly: Transactivation test, HeLa cells stably transfected with RAR beta ER-DBD and ERE-luciferase reporter. As to conditions: for AC50: at the reference ligand concentration that gives 80% activation; for Kd: crossed curves against reference antagonist, Schild regression, read-out: RAR beta Kd app. As to the method: (§1) The activation of receptors with an agonist (activator) in HeLa cells leads to the expression of a reporter gene, luciferase, which, in the presence of a substrate, generates light. The activation of the receptors may thus be measured by quantifying the luminescence produced after incubating the cells in the presence of a reference antagonist. The activating products displace the antagonist from its site, thus permitting activation of the receptor. The activity is measured by quantifying the increase in light produced. This measurement makes it possible to determine the activating activity of the compounds according to the invention.
(§2) In this study, a constant is determined which is the affinity of the molecule for the receptor. Since this value can fluctuate depending on the basal activity and the expression of the receptor, it is referred to as the Kd apparent (KdApp).
(§3) To determine this constant, “crossed curves” of the test product against a reference antagonist, 4-(5,5-dimethyl-8-p-tolyl-5,6-dihydro-2-naphthalen-2-ylethynyl)benzoic acid, are performed in 96-well plates. The test product is used at 10 concentrations and the reference antagonist at 7 concentrations. In each well, the cells are in contact with a concentration of the test product and a concentration of the reference antagonist, 4-(5,5-dimethyl-8-p-tolyl-5,6-dihydro-2-naphthalen-2-ylethynyl)benzoic acid. Measurements are also taken for the total agonist (4-[2-(5,5,8,8-tetramethyl-5,6,7,8-tetrahydro-2-naphthyl)propenyl]benzoic acid) and inverse agonist, 4-{(E)-3-[4-(4-tert-butylphenyl)-5,5,8,8-tetramethyl-5,6,7,8-tetrahydro-2-naphthyl]-3-oxopropenyl}benzoic acid, controls.
(§4) These crossed curves make it possible to determine the AC50 values (concentration at which 50% activation is observed) for the reference ligand at various concentrations of test product. These AC50 values are used to calculate the Schild regression by plotting a straight line corresponding to the Schild equation (“Quantitation in Receptor Pharmacology” Terry P. Kenakin, Receptors and Channels, 2001, 7, 371-385).
(§5) In the case of an agonist, an AC50 value (concentration that gives 50% of the activity) is calculated by plotting the curve of the product at the concentration of the reference ligand that gives 80% activation.
(§6) The HeLa cell lines used are stable transfectants containing the plasmids ERE-μGlob-Luc-SV-Neo (reporter gene) and RAR (α, β, γ) ER-DBD-puro. These cells are inoculated into 96-well plates at a rate of 10 000 cells per well in 100 μl of DMEM medium without phenol red, and supplemented with 10% defatted calf serum. […]
(§7) The culture medium is removed by turning over and 100 μl of a 1:1 PBS/luciferin mixture is added to each well. After 5 minutes, the plates are read using the luminescence reader.

In test [2] the target is T2, RAR gamma (Homo sapiens, UniProt P13631).
T2 sequence (P13631 185-419 limits assumed): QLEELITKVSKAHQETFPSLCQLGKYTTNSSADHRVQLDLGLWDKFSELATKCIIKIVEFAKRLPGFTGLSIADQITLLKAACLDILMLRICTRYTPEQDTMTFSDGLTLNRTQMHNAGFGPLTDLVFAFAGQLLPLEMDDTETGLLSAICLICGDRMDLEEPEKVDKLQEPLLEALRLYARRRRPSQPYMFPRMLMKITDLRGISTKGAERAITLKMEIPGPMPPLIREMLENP
Description: Transactivation test, HeLa cells stably transfected with RAR gamma ER-DBD and ERE-luciferase reporter. The following applies: for AC50: at the reference ligand concentration that gives 80% activation; for Kd: crossed curves against reference antagonist, Schild regression, read-out: RAR gamma Kd app. How it is done:
as §1, §2, §3, §4, §5, §6, §7

The target of test [3] is T3, RAR alpha (Homo sapiens, UniProt P10276).
T3 sequence (P10276 183-417 limits assumed): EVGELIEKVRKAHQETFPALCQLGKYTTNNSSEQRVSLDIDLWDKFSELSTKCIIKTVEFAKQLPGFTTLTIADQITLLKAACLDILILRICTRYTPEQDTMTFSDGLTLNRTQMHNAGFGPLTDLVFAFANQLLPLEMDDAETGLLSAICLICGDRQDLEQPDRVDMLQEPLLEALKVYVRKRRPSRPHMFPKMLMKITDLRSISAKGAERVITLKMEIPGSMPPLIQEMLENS
Put plainly: Transactivation test, HeLa cells stably transfected with RAR alpha ER-DBD and ERE-luciferase reporter. As to the method: as §1
In this study, a constant is determined which is the affinity of the molecule for the receptor. […]
as §4
In the case of an agonist, an AC50 value (concentration that gives 50% of the activity) is calculated by plotting the curve of the product at the concentration of the reference ligand that gives 80% activation. […]

Molecules are shown by their SMILES.

Regarding `CCN(CC)c1ccc(C(COc2ccc(C(=O)O)cc2)=NO)cc1C(C)(C)C` [Ex 1, 4-[2-(3-tert-Butyl-4-diethylaminophenyl)-2-hydroxyiminoethoxy]benzoic acid], the AC50 in test [1] turned out to be 2500 nM; in test [2] it was 80 nM. Besides, the results for the Kd in test [1] and in test [2] were 500 nM and 60 nM, respectively.

`CCN(CC)c1ccc(C(COc2ccc(C(=O)O)c(O)c2)=NO)cc1C(C)(C)C` [Ex 2, 4-[2-(3-tert-Butyl-4-diethylaminophenyl)-2-hydroxyiminoethoxy]-2-hydroxybenzoic acid]: the AC50 in test [1] is 1000 nM; in test [3] (at the reference ligand concentration that gives 80% activation), 5000 nM; in test [2], 4 nM. Moreover, the Kd in test [1] was found to be 500 nM; in test [3] (crossed curves against reference antagonist, Schild regression, read-out: RAR alpha Kd app), 5000 nM; in test [2], 4 nM.
